BindingDB's records for doi:10.1016/s0014-2999(02)02124-6 (Schering-Plough Research Institute, 2002)

What was measured:
Substance-K receptor = molecular target: T1, Substance-K receptor (Homo sapiens, UniProt P21452)
T1 sequence (P21452 whole entry): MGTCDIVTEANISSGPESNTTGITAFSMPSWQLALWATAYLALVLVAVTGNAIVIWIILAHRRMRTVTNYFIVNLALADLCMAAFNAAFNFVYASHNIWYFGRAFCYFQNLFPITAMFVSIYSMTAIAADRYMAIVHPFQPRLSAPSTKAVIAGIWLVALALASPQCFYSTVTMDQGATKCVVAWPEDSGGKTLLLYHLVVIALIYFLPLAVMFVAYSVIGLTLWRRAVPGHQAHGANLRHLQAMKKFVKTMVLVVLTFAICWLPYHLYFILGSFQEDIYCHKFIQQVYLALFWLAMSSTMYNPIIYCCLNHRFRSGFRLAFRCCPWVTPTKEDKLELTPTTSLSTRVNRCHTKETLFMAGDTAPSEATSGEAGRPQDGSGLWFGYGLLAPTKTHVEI

Neuromedin-K receptor = molecular target: T2, Neuromedin-K receptor (Homo sapiens, UniProt P29371)
T2 sequence (P29371 whole entry): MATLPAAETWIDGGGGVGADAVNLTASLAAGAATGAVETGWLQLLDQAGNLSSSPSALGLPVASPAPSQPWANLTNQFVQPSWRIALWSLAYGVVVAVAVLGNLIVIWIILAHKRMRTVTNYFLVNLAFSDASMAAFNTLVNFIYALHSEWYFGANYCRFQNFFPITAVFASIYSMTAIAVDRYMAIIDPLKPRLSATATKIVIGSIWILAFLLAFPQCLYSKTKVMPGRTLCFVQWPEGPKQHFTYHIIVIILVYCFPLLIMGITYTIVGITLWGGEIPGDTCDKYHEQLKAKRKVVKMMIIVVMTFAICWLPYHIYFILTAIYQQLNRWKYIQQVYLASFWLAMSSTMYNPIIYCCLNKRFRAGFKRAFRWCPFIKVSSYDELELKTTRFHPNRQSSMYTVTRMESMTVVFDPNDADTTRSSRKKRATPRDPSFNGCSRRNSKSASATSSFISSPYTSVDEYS

Substance-P receptor = Substance-P receptor (Homo sapiens, UniProt P25103)
Chain of Substance-P receptor (P25103 whole entry): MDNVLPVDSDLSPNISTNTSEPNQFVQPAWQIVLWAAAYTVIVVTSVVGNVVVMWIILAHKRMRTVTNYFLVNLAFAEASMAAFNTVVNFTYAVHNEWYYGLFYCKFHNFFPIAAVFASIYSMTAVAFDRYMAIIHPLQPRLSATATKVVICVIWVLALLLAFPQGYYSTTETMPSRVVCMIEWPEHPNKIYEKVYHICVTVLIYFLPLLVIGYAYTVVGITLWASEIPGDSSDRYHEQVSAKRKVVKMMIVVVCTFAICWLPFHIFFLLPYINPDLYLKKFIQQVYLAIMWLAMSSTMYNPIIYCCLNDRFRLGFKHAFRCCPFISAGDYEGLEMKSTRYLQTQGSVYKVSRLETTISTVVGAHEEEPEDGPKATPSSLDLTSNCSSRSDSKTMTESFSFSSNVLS

| Ki (Substance-K receptor) | Ki (Neuromedin-K receptor) | Ki (Substance-P receptor) | SMILES |
| --- | --- | --- | --- |
| 0.4 nM | 0.3 nM | 1.3 nM | CNC(=O)CC1CCCN(C2CCN(CC[C@@H](/C(CN(C)C(=O)c3cc(Cl)cc(Cl)c3)=N/OC)c3ccc(Cl)c(Cl)c3)CC2)C1=O (stereo partly drawn) |
| > 10000 nM | > 10000 nM |  | COc1ccccc1CN[C@H]1CCCN[C@H]1c1ccccc1 [(+/-)(2-Methoxy-benzyl)-(2-phenyl-piperidin-3-yl)-amine] |
| 0.4 nM | 1280 nM | 273 nM | CC(=O)NC1(c2ccccc2)CCN(CCC(CN(C)C(=O)c2ccccc2)c2ccc(Cl)c(Cl)c2)CC1 (stereo not drawn) [SR 48968] |
